Assay [1] addresses TGF-beta receptor type-2 (Homo sapiens) (UniProt P37173). The assay is described as follows: Selectivity interaction (ProQinase) EUB0000171b TGFBR2.
For assay [2], the target named is T1, Interleukin-1 receptor-associated kinase 3 (Homo sapiens) (UniProt Q9Y616).
T1 sequence (whole entry): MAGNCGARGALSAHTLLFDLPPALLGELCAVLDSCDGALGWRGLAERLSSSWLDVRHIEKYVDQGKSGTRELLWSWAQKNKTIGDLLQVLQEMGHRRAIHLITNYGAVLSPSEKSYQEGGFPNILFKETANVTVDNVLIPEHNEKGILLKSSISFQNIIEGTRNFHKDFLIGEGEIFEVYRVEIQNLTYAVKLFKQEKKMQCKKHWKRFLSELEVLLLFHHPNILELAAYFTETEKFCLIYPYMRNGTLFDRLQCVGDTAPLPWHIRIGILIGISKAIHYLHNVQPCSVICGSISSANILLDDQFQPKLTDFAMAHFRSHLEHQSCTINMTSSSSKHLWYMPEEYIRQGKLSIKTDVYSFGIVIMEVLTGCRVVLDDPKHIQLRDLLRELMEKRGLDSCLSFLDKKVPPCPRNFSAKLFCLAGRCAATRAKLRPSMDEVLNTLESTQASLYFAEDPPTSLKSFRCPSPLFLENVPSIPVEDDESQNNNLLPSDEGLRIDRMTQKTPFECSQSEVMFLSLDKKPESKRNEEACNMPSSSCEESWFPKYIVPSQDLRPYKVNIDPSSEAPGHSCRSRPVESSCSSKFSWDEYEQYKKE
As to the kind of experiment: Selectivity interaction (Ambit KINOMEscan and KiNATiv profiling in Jurkat cells) EUB0000090b IRAK3. Format: cell-based. The following applies: at 1 µM.

In assay [3] the target is Leukocyte tyrosine kinase receptor (Homo sapiens, UniProt P29376). Conditions: at 10 µM.
Leukocyte tyrosine kinase receptor, sequence (P29376 whole entry): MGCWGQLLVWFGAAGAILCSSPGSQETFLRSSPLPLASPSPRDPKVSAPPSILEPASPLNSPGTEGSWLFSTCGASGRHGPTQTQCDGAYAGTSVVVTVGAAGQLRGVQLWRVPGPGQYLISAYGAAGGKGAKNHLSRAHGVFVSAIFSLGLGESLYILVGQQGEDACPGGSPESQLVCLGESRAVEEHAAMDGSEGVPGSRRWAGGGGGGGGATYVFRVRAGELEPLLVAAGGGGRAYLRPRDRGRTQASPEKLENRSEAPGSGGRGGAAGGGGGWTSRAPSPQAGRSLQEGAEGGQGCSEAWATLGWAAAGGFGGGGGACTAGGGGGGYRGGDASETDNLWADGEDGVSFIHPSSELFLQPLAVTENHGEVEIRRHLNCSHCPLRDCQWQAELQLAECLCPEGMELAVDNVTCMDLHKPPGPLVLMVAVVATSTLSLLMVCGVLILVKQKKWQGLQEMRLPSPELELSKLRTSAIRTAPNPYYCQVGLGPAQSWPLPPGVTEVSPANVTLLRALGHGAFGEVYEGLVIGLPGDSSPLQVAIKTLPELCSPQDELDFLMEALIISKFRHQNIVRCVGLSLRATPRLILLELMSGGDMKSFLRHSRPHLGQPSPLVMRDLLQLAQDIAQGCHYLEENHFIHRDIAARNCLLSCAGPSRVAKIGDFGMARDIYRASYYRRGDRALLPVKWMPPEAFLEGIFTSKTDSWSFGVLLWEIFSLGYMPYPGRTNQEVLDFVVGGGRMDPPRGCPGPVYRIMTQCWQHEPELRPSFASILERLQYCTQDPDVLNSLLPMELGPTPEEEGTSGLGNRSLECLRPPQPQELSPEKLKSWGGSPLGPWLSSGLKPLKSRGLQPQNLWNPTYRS
In assay [4] the target is Cyclin-dependent kinase 14 (Homo sapiens) (UniProt O94921). The assay is described as follows: Selectivity interaction (KinomeScan (DiscoverX)) EUB0000092b CDK14. Conditions: at 10 µM.
Cyclin-dependent kinase 14 (Homo sapiens), sequence (O94921 whole entry): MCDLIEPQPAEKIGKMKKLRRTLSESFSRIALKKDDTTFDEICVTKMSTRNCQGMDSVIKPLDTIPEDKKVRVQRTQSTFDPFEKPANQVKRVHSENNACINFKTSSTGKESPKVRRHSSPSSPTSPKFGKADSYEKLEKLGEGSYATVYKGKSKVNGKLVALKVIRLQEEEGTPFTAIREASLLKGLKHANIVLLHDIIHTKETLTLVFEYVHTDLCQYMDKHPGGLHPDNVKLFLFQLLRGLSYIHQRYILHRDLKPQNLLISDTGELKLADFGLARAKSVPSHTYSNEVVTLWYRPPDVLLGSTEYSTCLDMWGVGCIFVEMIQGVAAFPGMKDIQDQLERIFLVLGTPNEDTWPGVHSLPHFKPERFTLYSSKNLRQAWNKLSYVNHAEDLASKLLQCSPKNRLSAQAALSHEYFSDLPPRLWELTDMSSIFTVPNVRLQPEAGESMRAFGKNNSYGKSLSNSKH
The target in assay [5] is Ribosomal protein S6 kinase alpha-2 (Homo sapiens) (UniProt Q15349). The assay is described as follows: Selectivity interaction (KinomeScan (DiscoverX)) EUB0000092b RPS6KA2. Conditions: at 10 µM.
Ribosomal protein S6 kinase alpha-2 (Homo sapiens), sequence (Q15349 whole entry): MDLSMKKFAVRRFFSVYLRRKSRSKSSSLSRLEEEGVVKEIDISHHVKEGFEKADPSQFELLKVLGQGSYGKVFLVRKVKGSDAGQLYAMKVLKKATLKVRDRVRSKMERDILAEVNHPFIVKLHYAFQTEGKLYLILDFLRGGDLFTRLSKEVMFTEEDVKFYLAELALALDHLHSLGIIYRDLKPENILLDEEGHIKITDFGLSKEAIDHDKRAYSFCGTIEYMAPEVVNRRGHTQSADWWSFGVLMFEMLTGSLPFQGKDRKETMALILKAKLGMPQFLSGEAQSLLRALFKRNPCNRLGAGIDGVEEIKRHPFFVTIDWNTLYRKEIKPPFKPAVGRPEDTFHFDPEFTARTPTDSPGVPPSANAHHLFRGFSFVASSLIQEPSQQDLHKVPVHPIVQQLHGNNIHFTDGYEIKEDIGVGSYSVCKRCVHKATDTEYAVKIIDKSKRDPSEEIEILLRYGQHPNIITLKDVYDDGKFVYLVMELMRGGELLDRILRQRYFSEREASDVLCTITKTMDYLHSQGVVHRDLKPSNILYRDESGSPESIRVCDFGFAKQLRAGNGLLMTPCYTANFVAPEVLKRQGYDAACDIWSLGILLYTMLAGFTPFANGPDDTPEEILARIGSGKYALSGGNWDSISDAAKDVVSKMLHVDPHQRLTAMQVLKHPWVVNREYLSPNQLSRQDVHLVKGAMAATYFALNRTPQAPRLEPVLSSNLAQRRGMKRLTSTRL
For assay [6], the target named is T2, Calcium/calmodulin-dependent protein kinase type IV (Homo sapiens) (UniProt Q16566).
T2 sequence (whole entry): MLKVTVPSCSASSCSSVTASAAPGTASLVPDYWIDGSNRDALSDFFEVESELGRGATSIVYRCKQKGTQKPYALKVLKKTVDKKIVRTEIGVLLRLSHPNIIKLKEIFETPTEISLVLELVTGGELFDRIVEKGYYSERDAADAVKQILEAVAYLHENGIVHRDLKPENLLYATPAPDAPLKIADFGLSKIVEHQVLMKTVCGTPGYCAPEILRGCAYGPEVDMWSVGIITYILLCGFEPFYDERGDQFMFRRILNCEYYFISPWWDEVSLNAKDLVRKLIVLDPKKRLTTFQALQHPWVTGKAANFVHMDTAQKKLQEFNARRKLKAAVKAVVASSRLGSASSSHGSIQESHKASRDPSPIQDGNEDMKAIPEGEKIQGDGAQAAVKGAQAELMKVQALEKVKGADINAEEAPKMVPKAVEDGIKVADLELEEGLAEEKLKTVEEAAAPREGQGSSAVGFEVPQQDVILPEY
As to the kind of experiment: Selectivity interaction (KinomeScan (DiscoverX)) EUB0000666a CAMK4. The following applies: at 10 µM.

In assay [7] the target is CDK2/Cyclin A1 (Homo sapiens) (UniProt P24941+P78396). As to the kind of experiment: (§1) Selectivity interaction (LanthaScreen Eu Kinase Binding Assay) EUB0001632a CDK2. It is filed as protein-complex assay. The following applies: at 10 µM. A general note: In TR-FRET formats the signal depends on donor and acceptor labels being close together.
Assay [8] addresses CDK2/Cyclin O (Homo sapiens) (UniProt P24941+P22674). Described as §1. It is filed as protein-complex assay. Conditions: at 10 µM.
For assay [9], the target named is Cyclin-dependent kinase 2/cyclin E1 (Homo sapiens) (UniProt P24864+P24941). Described as §1. Format: protein-complex assay. Conditions: at 10 µM.
Assay [10] has as its system Epidermal growth factor receptor (Homo sapiens), P00533 [UNDEFINED MUTATION]. As to the kind of experiment: Selectivity interaction (KinomeScan (DiscoverX)) EUB0000229b EGFR. The following applies: at 1 µM.
For assay [11], the target named is T3, Serine/threonine-protein kinase D1 (Homo sapiens) (UniProt Q15139).
T3 sequence (whole entry): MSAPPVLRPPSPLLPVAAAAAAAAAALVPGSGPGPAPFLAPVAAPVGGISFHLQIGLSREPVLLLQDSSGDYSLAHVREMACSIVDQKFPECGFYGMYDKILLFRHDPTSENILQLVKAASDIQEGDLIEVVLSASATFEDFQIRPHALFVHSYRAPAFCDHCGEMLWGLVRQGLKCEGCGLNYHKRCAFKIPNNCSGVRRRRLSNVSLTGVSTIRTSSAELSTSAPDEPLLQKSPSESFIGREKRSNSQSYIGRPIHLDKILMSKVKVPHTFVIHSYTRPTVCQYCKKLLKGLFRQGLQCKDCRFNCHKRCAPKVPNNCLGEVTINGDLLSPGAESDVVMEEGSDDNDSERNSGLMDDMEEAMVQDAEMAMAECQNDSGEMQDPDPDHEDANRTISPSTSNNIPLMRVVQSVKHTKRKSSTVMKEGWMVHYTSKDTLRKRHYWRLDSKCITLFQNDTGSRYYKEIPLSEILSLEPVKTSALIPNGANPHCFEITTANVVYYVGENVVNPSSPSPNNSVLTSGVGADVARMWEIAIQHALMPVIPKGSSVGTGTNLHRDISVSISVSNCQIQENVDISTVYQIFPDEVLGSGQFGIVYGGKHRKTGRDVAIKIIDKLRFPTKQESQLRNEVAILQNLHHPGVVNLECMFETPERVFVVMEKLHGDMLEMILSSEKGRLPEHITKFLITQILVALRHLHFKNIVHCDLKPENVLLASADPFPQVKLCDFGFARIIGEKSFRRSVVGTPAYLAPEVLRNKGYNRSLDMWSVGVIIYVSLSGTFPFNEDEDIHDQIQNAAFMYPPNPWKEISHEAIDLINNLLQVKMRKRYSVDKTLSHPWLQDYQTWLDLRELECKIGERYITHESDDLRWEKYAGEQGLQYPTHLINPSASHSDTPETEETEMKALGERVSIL
The assay is described as follows: Selectivity interaction (Kinase panel (literature)) EUB0001199aCl PRKD1. Conditions: at 1 µM.

TGF-beta receptor type-2 (Homo sapiens), sequence (P37173 whole entry): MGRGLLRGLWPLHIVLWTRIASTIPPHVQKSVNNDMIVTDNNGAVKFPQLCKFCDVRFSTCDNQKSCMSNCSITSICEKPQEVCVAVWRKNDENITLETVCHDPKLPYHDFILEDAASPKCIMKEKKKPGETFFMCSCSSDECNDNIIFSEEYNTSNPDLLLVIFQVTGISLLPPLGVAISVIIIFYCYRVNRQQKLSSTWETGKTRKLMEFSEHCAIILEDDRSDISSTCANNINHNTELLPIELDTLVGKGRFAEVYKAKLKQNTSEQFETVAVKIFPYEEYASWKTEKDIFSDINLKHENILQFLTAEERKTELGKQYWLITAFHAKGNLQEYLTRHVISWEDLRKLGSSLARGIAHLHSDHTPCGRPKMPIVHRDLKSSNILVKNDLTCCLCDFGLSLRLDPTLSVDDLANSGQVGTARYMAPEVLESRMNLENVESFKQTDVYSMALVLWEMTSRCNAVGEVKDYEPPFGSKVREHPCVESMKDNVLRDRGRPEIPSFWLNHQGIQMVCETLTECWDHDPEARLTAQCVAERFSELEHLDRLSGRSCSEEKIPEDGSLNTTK
Epidermal growth factor receptor (Homo sapiens), P00533 [UNDEFINED MUTATION], sequence (P00533 whole entry, looked up, change not shown): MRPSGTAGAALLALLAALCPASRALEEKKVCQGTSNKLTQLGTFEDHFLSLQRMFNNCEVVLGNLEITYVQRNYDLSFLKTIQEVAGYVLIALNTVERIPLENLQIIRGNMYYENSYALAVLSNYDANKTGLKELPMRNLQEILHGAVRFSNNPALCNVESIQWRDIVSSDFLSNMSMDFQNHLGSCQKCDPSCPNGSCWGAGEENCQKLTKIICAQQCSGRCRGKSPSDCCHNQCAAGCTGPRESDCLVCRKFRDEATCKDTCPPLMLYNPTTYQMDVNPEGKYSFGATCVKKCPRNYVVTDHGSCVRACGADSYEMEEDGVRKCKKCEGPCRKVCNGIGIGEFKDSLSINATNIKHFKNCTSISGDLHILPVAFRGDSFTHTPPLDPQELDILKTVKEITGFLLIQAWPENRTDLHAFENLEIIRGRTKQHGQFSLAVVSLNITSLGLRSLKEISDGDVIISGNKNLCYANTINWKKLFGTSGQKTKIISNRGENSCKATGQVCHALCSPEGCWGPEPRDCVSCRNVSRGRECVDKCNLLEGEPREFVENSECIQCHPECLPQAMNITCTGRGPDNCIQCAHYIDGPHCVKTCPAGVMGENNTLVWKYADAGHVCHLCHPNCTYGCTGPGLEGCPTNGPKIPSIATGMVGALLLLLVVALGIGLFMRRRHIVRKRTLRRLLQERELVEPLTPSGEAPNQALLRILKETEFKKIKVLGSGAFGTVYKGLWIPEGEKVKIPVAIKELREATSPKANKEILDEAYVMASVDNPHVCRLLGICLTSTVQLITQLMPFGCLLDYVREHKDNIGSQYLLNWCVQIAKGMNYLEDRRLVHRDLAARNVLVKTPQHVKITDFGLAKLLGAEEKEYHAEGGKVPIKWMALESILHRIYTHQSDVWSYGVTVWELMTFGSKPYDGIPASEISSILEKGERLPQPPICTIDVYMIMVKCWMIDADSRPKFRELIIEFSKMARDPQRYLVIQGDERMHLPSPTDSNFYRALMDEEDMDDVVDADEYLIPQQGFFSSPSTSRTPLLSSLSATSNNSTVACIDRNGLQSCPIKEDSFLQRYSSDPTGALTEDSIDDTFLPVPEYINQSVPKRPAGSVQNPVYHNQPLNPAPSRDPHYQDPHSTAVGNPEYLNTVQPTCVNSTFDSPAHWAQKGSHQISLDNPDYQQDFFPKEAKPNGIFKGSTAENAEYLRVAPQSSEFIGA

As to `C=CC(=O)Nc1cccc(C(=O)Nc2ccc(Nc3cc(-c4[nH]c(SC)nc4C)ccn3)cc2)c1`, the results for the % of control in assay [1] (at 1 µM) and in [1] (at 5 µM) were 53% and 4%, respectively.
Regarding `CN(C)C/C=C/C(=O)Nc1ccc(C(=O)N2CCCC(Nc3ncc(Cl)c(-c4c[nH]c5ccccc45)n3)C2)cc1` (configuration not stated), the % of control in assay [2] was 68%.
The compound `CCN(CC)CCCCNc1ncc2cc(-c3cc(OC)cc(OC)c3)c(NC(=O)NC(C)(C)C)nc2n1` showed a % of control in assay [3] of 100%.
For `CCC(=O)N1CCN(c2ccc(-n3c(=O)ccc4cnc5ccc(-c6cnc7ccccc7c6)cc5c43)cc2C(F)(F)F)CC1`, the % of control in [4] turned out to be 99%; in [5], 100%.
Consider `O=C(NOC[C@H](O)CO)c1ccc(F)c(F)c1Nc1ccc(I)cc1F`, for which, in assay [6], the % of control was 100%.
Consider `Cn1cc(-n2cnc3c(NCc4nc5cc(Cl)c(Cl)cc5[nH]4)nc(N4CCOCC4)nc32)cn1`, for which the % of inhibition was -33.3% in assay [7], -162% in [8] and -64.3% in [9].
As for `COc1cc(N(C)c2ccnc3ccc(C(F)(F)F)cc23)cc(OC)c1OC`, the % binding in assay [10] turned out to be 95%.
Take `CN1Cc2nccc(-c3cn(C)nc3-c3ccc(F)cc3)c2C1=O`: the % of inhibition in assay [11] was -11%.
